Test results from patent publication US20240109903A1, “SUBSTITUTED HETEROCYCLES FOR TREATING CANCER” (Northwestern University, priority 2022, published 2024).

Columns and labels:
full NCI 60 cell panel = assay: NCI 60 Cell One-dose screen; assay type: cell-based, human; conditions: single high dose 10^−5 M, NCI 60 panel
Source text: Compounds were submitted to the NCI 60 Cell screen and tested at a single high dose (10^−5 M) in the full NCI 60 cell panel (see the following reference for details of using NCI 60 human tumor cell lines for screening anticancer drugs: Shoemaker R H. The NCI60 human tumor cell line anticancer drug screen. Nature Rev Cancer 2006; 6: 813-23). The One-dose data is reported as a mean graph of the percent growth of treated cells. The number reported for the One-dose assay is growth relative to the no-drug control, and relative to the time zero number of cells. This allows detection of both growth inhibition (values between 0 and 100) and lethality (values less than 0). For example, a value of 100 means no growth inhibition. A value of 40 would mean 60% growth inhibition. A value of 0 means no net growth over the course of the experiment. A value of −40 would mean 40% lethality. A value of −100 means all cells are dead. FIGS. 1-8 show the mean graph of percent growth against the NCI-60 cell panel for NUCC-0226674, NUCC-0226679, NUCC-0226680, NUCC-0226683, NUCC-0226689, NUCC-0226694, NUCC-0226695, and NUCC-0226698.

HL-60(TB) = assay: NCI 60 five-dose screen HL-60(TB); assay type: cell-based; conditions: Homo sapiens
MOLT-4 = assay: NCI 60 five-dose screen MOLT-4; assay type: cell-based; conditions: Homo sapiens
RPMI-8226 = assay: NCI 60 five-dose screen RPMI-8226; assay type: cell-based; conditions: Homo sapiens
SR = assay: NCI 60 five-dose screen SR; assay type: cell-based, human
NCI-H226 = assay: NCI 60 five-dose screen NCI-H226; assay type: cell-based; conditions: Homo sapiens
NCI-H322M = assay: NCI 60 five-dose screen NCI-H322M; assay type: cell-based; conditions: Homo sapiens
COLO 205 = assay: NCI 60 five-dose screen COLO 205; assay type: cell-based; conditions: Homo sapiens
KM12 = assay: NCI 60 five-dose screen KM12; assay type: cell-based; conditions: Homo sapiens
U251 = assay: NCI 60 five-dose screen U251; assay type: cell-based; conditions: Homo sapiens
LOX IMVI = assay: NCI 60 five-dose screen LOX IMVI; assay type: cell-based; conditions: Homo sapiens
MDA-MB-435 = assay: NCI 60 five-dose screen MDA-MB-435; assay type: cell-based; conditions: Homo sapiens
SK-MEL-28 = assay: NCI 60 five-dose screen SK-MEL-28; assay type: cell-based; conditions: Homo sapiens
SK-MEL-5 = assay: NCI 60 five-dose screen SK-MEL-5; assay type: cell-based; conditions: Homo sapiens
UACC-62 = assay: NCI 60 five-dose screen UACC-62; assay type: cell-based; conditions: Homo sapiens
OVCAR-5 = assay: NCI 60 five-dose screen OVCAR-5; assay type: cell-based; conditions: Homo sapiens
OVCAR-8 = assay: NCI 60 five-dose screen OVCAR-8; assay type: cell-based; conditions: Homo sapiens
786-0 = assay: NCI 60 five-dose screen 786-0; assay type: cell-based; conditions: Homo sapiens
RXF 393 = assay: NCI 60 five-dose screen RXF 393; assay type: cell-based; conditions: Homo sapiens
SN12C = assay: NCI 60 five-dose screen SN12C; assay type: cell-based; conditions: Homo sapiens
TK-10 = assay: NCI 60 five-dose screen TK-10; assay type: cell-based; conditions: Homo sapiens
MDA-MB-231/ATCC = assay: NCI 60 five-dose screen MDA-MB-231/ATCC; assay type: cell-based; conditions: Homo sapiens
BT-549 = assay: NCI 60 five-dose screen BT-549; assay type: cell-based; conditions: Homo sapiens
MDA-MB-468 = assay: NCI 60 five-dose screen MDA-MB-468; assay type: cell-based; conditions: Homo sapiens
[1] = read-out: LC50 (the source's name) (converted)
[2] = read-out: LC50 (the source's name)

COc1cc(Cn2c(C(F)(F)F)cc3c(Cl)ncnc32)ccn1 [NUCC-0226694]
growth inhibition in the One-Dose Screen (full NCI 60 cell panel): significant growth inhibition
GI50 (HL-60(TB)): 2.14 µM
IC50 (HL-60(TB)): 3.39 µM
IC (TGI) (HL-60(TB)): 7.24 µM
CC50 (HL-60(TB); [1]): ≥ 100 µM
GI50 (MOLT-4): 3.31 µM
IC50 (MOLT-4): 4.57 µM
IC (TGI) (MOLT-4): 100 µM
CC50 (MOLT-4; [2]): ≥ 100 µM
GI50 (RPMI-8226): 15.5 µM
IC50 (RPMI-8226): 26.3 µM
IC (TGI) (RPMI-8226): 79.4 µM
CC50 (RPMI-8226; [2]): ≥ 100 µM
TGI (SR): 4 −log[M]
GI50 (SR; Homo sapiens): 3.63 µM
IC50 (SR; Homo sapiens): 4.79 µM
CC50 (SR; Homo sapiens, read-out: LC50 (the source's name)): ≥ 100 µM
GI50 (NCI-H226): 15.5 µM
IC50 (NCI-H226): 33.1 µM
IC (TGI) (NCI-H226): 32.4 µM
CC50 (NCI-H226; [1]): 67.6 µM
GI50 (NCI-H322M): 1.7 µM
IC50 (NCI-H322M): 3.16 µM
IC (TGI) (NCI-H322M): 3.31 µM
CC50 (NCI-H322M; [1]): 6.31 µM
GI50 (COLO 205): 15.1 µM
IC50 (COLO 205): 26.3 µM
IC (TGI) (COLO 205): 46.8 µM
CC50 (COLO 205; [1]): ≥ 100 µM
GI50 (KM12): 13.5 µM
IC50 (KM12): 22.9 µM
IC (TGI) (KM12): 30.2 µM
CC50 (KM12; [1]): 69.2 µM
GI50 (U251; U-251): 15.1 µM
IC50 (U251; U-251): 26.9 µM
IC (TGI) (U251; U-251): 28.8 µM
CC50 (U251; U-251, read-out: LC50 (the source's name) (converted)): 56.2 µM
GI50 (LOX IMVI): 1.66 µM
IC50 (LOX IMVI): 2.88 µM
IC (TGI) (LOX IMVI): 3.16 µM
CC50 (LOX IMVI; [1]): 6.03 µM
GI50 (MDA-MB-435): 3.24 µM
IC50 (MDA-MB-435): 4.79 µM
IC (TGI) (MDA-MB-435): 14.5 µM
CC50 (MDA-MB-435; [1]): 50.1 µM
GI50 (SK-MEL-28): 4.57 µM
IC50 (SK-MEL-28): 10 µM
IC (TGI) (SK-MEL-28): 16.2 µM
CC50 (SK-MEL-28; [1]): 40.7 µM
GI50 (SK-MEL-5): 3.89 µM
IC50 (SK-MEL-5): 6.92 µM
IC (TGI) (SK-MEL-5): 14.1 µM
CC50 (SK-MEL-5; [1]): 38 µM
GI50 (UACC-62): 8.13 µM
IC50 (UACC-62): 15.8 µM
IC (TGI) (UACC-62): 20.4 µM
CC50 (UACC-62; [1]): 45.7 µM
GI50 (OVCAR-5): 15.8 µM
IC50 (OVCAR-5): 29.5 µM
IC (TGI) (OVCAR-5): 32.4 µM
CC50 (OVCAR-5; [1]): 66.1 µM
GI50 (OVCAR-8): 11.5 µM
IC50 (OVCAR-8): 19.1 µM
IC (TGI) (OVCAR-8): 26.3 µM
CC50 (OVCAR-8; [1]): 61.7 µM
GI50 (786-0): 10.7 µM
IC50 (786-0): 17 µM
IC (TGI) (786-0): 25.7 µM
CC50 (786-0; [1]): 63.1 µM
GI50 (RXF 393): 7.94 µM
IC50 (RXF 393): 24.5 µM
IC (TGI) (RXF 393): 22.4 µM
CC50 (RXF 393; [1]): 55 µM
GI50 (SN12C): 9.12 µM
IC50 (SN12C): 15.5 µM
IC (TGI) (SN12C): 21.4 µM
CC50 (SN12C; [1]): 46.8 µM
GI50 (TK-10): 19.1 µM
IC50 (TK-10): 45.7 µM
IC (TGI) (TK-10): 46.8 µM
CC50 (TK-10; [1]): ≥ 100 µM
GI50 (MDA-MB-231/ATCC): 3.31 µM
IC50 (MDA-MB-231/ATCC): 7.94 µM
IC (TGI) (MDA-MB-231/ATCC): 12.6 µM
CC50 (MDA-MB-231/ATCC; [1]): 42.7 µM
GI50 (BT-549): 1.62 µM
IC50 (BT-549): 3.24 µM
IC (TGI) (BT-549): 3.16 µM
CC50 (BT-549; [1]): 6.03 µM
GI50 (MDA-MB-468): 1.78 µM
IC50 (MDA-MB-468): 3.98 µM
IC (TGI) (MDA-MB-468): 3.8 µM
CC50 (MDA-MB-468; [1]): 7.94 µM
